Columns and labels:
Assay type in all cases: biochemical
Bl_Glc31 = Bl_Glc31 (Bifidobacterium longum, UniProt Q8G4P4); experiment: LC-MS; details: product Man9GlcNAc
Bl_Endo85 = target: T1, Bl_Endo85 (Bifidobacterium longum, UniProt Q8G4P3); experiment: LC-MS; details: 150 mM ammonium acetate pH 5.0, 37 °C, 16 h; product GlcMan9GlcNAc
T1 sequence (Q8G4P3 38-937): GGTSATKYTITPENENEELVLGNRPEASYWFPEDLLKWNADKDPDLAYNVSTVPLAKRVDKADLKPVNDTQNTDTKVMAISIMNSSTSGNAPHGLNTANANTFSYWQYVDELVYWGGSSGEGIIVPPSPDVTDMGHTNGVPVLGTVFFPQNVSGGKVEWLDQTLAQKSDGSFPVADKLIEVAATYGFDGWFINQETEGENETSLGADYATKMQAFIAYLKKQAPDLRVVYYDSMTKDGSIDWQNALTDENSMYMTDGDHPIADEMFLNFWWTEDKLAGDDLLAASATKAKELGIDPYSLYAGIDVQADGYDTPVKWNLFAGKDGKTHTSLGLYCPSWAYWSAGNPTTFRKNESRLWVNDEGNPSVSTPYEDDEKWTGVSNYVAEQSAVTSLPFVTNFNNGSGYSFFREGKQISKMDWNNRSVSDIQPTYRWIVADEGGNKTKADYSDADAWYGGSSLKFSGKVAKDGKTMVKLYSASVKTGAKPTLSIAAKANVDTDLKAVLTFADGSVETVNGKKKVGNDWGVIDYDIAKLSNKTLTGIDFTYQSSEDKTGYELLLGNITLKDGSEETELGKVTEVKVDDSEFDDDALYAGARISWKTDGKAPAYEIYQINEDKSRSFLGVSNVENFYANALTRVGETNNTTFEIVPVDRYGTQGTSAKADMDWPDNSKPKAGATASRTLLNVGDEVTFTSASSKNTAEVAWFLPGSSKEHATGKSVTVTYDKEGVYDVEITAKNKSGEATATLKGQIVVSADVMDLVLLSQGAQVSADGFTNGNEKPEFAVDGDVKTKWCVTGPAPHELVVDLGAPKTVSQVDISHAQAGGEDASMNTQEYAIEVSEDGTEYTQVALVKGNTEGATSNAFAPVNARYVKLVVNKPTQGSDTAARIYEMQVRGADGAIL

Bl_Man38C = target: T2, Bl_Man38C (Bifidobacterium longum, UniProt Q8G4P9); experiment: LC-MS hydrolysis kinetics; details: pH 5.5, 37 °C, 0.1 mM CoCl2
T2 sequence (Q8G4P9 1-1034): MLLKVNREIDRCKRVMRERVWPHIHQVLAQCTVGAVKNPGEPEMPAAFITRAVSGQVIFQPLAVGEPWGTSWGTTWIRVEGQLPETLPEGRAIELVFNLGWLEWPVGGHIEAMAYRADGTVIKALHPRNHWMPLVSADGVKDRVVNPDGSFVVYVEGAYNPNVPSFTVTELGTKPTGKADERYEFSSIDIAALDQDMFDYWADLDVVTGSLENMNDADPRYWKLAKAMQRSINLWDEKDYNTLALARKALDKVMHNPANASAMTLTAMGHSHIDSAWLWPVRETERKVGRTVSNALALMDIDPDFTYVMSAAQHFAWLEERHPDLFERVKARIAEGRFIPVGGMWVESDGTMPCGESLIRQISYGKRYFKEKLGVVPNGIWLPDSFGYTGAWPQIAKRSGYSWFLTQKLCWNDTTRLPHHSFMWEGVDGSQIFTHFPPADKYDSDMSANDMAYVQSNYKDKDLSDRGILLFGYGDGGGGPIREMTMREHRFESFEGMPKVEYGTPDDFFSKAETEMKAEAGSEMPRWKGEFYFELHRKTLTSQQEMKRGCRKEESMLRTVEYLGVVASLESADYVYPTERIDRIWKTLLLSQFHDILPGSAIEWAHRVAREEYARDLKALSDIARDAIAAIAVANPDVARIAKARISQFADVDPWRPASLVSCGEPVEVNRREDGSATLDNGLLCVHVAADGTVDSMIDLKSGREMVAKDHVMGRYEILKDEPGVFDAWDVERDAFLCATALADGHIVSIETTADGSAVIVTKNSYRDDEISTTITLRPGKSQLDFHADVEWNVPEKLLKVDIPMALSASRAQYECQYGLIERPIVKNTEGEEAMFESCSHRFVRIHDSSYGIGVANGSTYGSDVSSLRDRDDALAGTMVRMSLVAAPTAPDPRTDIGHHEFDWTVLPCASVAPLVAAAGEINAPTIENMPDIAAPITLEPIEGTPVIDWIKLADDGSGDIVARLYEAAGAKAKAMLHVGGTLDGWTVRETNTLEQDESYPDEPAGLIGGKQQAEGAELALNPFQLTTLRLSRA

Bl_Man125 = target: T3, Bl_Man125 (Bifidobacterium longum, UniProt Q8G4P0); experiment: LC-MS hydrolysis kinetics; details: pH 5.5, 37 °C
T3 sequence (Q8G4P0 1-432): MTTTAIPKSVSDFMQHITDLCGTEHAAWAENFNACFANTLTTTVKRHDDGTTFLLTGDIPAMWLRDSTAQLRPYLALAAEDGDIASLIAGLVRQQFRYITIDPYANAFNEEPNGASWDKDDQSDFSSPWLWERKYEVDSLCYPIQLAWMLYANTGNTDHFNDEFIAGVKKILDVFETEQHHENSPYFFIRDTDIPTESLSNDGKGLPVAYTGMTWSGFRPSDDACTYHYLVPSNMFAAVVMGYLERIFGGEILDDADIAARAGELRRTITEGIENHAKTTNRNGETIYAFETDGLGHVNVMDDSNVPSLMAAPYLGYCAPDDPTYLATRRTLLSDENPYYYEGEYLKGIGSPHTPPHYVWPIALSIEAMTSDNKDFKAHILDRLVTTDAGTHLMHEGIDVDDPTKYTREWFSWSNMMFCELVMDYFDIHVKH

Bl_Man38B = target: T4, Bl_Man38B (Bifidobacterium longum, UniProt Q8G4Q0); experiment: LC-MS hydrolysis kinetics; details: pH 5.5, 37 °C, 0.1 mM CoCl2
T4 sequence (Q8G4Q0 1-1046): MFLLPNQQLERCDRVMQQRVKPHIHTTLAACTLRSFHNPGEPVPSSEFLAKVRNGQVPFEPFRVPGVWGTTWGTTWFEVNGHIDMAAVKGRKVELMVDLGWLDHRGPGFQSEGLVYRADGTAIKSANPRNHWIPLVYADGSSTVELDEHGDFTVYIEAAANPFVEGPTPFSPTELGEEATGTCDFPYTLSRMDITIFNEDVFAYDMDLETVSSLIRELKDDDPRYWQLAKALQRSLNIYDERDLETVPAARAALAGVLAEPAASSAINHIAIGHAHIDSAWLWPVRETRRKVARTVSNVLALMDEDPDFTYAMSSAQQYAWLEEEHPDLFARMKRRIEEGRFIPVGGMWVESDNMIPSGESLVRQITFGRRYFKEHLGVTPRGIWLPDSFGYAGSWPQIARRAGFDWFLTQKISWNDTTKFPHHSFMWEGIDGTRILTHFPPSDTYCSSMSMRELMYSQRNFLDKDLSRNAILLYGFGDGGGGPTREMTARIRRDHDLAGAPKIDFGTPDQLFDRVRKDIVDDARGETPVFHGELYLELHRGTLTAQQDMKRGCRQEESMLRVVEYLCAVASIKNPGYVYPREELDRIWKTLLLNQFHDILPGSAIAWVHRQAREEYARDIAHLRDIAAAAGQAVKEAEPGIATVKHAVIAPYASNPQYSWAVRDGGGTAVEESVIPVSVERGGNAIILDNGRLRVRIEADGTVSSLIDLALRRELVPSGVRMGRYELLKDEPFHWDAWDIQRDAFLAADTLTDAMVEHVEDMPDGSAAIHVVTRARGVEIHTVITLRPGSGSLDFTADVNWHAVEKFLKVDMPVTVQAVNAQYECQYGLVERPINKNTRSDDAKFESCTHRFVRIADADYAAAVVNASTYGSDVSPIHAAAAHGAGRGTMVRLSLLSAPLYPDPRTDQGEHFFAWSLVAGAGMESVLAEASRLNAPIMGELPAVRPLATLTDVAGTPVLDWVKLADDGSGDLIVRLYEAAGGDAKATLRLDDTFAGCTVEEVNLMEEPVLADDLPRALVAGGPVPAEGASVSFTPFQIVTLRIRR

## CC(=O)N[C@H]1C(O)O[C@H](CO)[C@@H](O[C@@H]2O[C@H](CO[C@H]3O[C@H](CO[C@H]4O[C@H](CO)[C@@H](O)[C@H](O)[C@@H]4O[C@H]4O[C@H](CO)[C@@H](O)[C@H](O)[C@@H]4O)[C@@H](O)[C@H](O[C@H]4O[C@H](CO)[C@@H](O)[C@H](O)[C@@H]4O[C@H]4O[C@H](CO)[C@@H](O)[C@H](O)[C@@H]4O)[C@@H]3O)[C@@H](O)[C@H](O[C@H]3O[C@H](CO)[C@@H](O)[C@H](O)[C@@H]3O[C@H]3O[C@H](CO)[C@@H](O)[C@H](O)[C@@H]3O[C@H]3O[C@H](CO)[C@@H](O)[C@H](O[C@H]4O[C@H](CO)[C@@H](O)[C@H](O)[C@H]4O)[C@@H]3O)[C@@H]2O)[C@@H]1O (some centres unmarked) [GlcMan9GlcNAc]
Bl_Glc31
  LC-MS: Bl_Glc31 can specifically cleave GlcMan9GlcNAc, generating only Man9GlcNAc

## CC(=O)N[C@H]1[C@H](O[C@H]2[C@H](O)[C@@H](NC(C)=O)C(O)O[C@@H]2CO)O[C@H](CO)[C@@H](O[C@@H]2O[C@H](CO[C@H]3O[C@H](CO[C@H]4O[C@H](CO)[C@@H](O)[C@H](O)[C@@H]4O[C@H]4O[C@H](CO)[C@@H](O)[C@H](O)[C@@H]4O)[C@@H](O)[C@H](O[C@H]4O[C@H](CO)[C@@H](O)[C@H](O)[C@@H]4O[C@H]4O[C@H](CO)[C@@H](O)[C@H](O)[C@@H]4O)[C@@H]3O)[C@@H](O)[C@H](O[C@H]3O[C@H](CO)[C@@H](O)[C@H](O)[C@@H]3O[C@H]3O[C@H](CO)[C@@H](O)[C@H](O)[C@@H]3O[C@H]3O[C@H](CO)[C@@H](O)[C@H](O[C@H]4O[C@H](CO)[C@@H](O)[C@H](O)[C@H]4O)[C@@H]3O)[C@@H]2O)[C@@H]1O (some centres unmarked) [GlcMan9GlcNAc2]
Bl_Endo85
  LC-MS: Reaction of Bl_Endo85 against GlcMan9GlcNAc2, generating GlcMan9GlcNAc

## OC[C@H]1O[C@H](O[C@@H]2C(O)O[C@H](CO)[C@@H](O)[C@@H]2O)[C@@H](O)[C@@H](O)[C@@H]1O (stereo partly drawn) [α-1,2-mannobiose]
Bl_Man38C
  Km: Bl_Man38C presents a clear preference for α-1,2-mannobiose

## OC[C@H]1O[C@H](OC[C@H]2OC(O)[C@@H](O)[C@@H](O)[C@@H]2O)[C@@H](O)[C@@H](O)[C@@H]1O (stereo partly drawn) [α-1,6-mannobiose]
Bl_Man125
  Km: Bl_Man125 was shown to be strictly an α-1,6-mannosidase
Bl_Man38B
  Km: Bl_Man38B was efficient over the three disaccharides
